Test results taken from patent publication US6403532B1, “Herbicidal synergistic composition, and method of controlling weeds” (Syngenta Crop Protection, Inc., priority 1995, dated 2002).

Assays:
Type in all cases: in vivo
[1] = tested on: transplanted rice; test: Herbicidal activity in paddy rice (transplanted), run-in method: crop plant tolerance
Method: (§1) Herbicidal Activity in Paddy Rice (transplanted):
(§2) The test plants are sown or planted in standard soil in shallow plastic containers under greenhouse conditions. The containers are then filled with water to soil level. After 3 days, the water level is raised by 2 cm, and the test substances are applied in the form of an aqueous suspension (Formulation Example F7, c)) by the run-in method (application into the water). The test plants are then grown on in the greenhouse under optimal conditions. 25 days after application, the test is evaluated using a % scale (100%=complete damage, 0%=no activity).
(§3) Test plants: transplanted rice, Sagittaria pygmaea, Scirpus juncoides and Heterantera.

[2] = tested on: Sagittaria pygmaea; test: Herbicidal activity in paddy rice (transplanted), run-in method: Sagittaria pygmaea; conditions: 25 days after application
Text: (§4) A synergistic effect is always present when the activity of the active ingredient combination I and II, and/or III, and/or IV and/or V exceeds the total of the activity of the active ingredients applied singly.
(§5) The expected herbicidal activity Ae for a given combination of two herbicides can be calculated as follows (cf. COLBY, S. R., “Calculating synergistic and antagonistic response of herbicide combinations”, Weeds 15, pages 20-22, 1967):
(§6) X=per cent herbicidal activity in the treatment with the compound of formula I using a rate of application of p kg per hectare in comparison with untreated control (=0%).
(§7) Y=per cent herbicidal activity in the treatment with the compound of formulae II to V using a rate of application of q kg per hectare in comparison with untreated control.
(§8) Ae=expected herbicidal activity (per cent herbicidal activity comparison with the untreated control) after treatment with the compounds of formulae I and II to V at a rate of application of p+q kg of active ingredient per hectare.
(§9) If the activity actually observed exceeds the expected value Ae, synergism is present.
as §1, §2, §3
Table B1: Experiments in transplanted rice with Sagittaria pygmaea, using the run-in method

[3] = tested on: Scirpus juncoides; test: Herbicidal activity in paddy rice (transplanted), run-in method: Scirpus juncoides; conditions: 25 days after application
Text: as §4, §5, §6, §7, §8, §9, §1, §2, §3

[4] = tested on: Heterantera; test: Herbicidal activity in paddy rice (transplanted), run-in method: Heterantera; conditions: 25 days after application
Text: as §4, §5, §6, §7, §8, §9, §1, §2, §3

[5] = 250 g of active ingredient/ha, run-in method, 25 days after application
[6] = 60 g of active ingredient/ha, run-in method, 25 days after application
[7] = 500 g of active ingredient/ha, run-in method, 25 days after application

COCCOc1ccccc1S(=O)(=O)NC(=O)Nc1nc(OC)nc(OC)n1 [1.3]
Crop plant transplanted rice ([1]; 6 g of active ingredient/ha, run-in method, 25 days after application): 0%
Crop plant transplanted rice ([1]; 12 g of active ingredient/ha, run-in method, 25 days after application): 0%
Crop plant transplanted rice ([1]; 24 g of active ingredient/ha, run-in method, 25 days after application): 15%
Weed Sagittaria pygm. ([2]; 6 g of active ingredient/ha): 70%
Weed Sagittaria pygm. ([2]; 12 g of active ingredient/ha): 75%
Weed Sagittaria pygm. ([2]; 24 g of active ingredient/ha): 94%

CCOC(=O)c1cnn(C)c1S(=O)(=O)NC(=O)Nc1nc(OC)cc(OC)n1 [1.2]
Crop plant transplanted rice ([1]; 8 g of active ingredient/ha, run-in method, 25 days after application): 0%
Crop plant transplanted rice ([1]; 15 g of active ingredient/ha, run-in method, 25 days after application): 0%
Crop plant transplanted rice ([1]; 30 g of active ingredient/ha, run-in method, 25 days after application): 0%
Weed Scirpus junc. ([3]; 15 g of active ingredient/ha): 0%
Weed Scirpus junc. ([3]; 30 g of active ingredient/ha): 20%
Weed Heterantera ([4]; 8 g of active ingredient/ha): 0%
Weed Heterantera ([4]; 15 g of active ingredient/ha): 0%
Weed Heterantera ([4]; 30 g of active ingredient/ha): 0%

CCCCOC(=O)[C@@H](C)Oc1ccc(Oc2ccc(C#N)cc2F)cc1 [3.1, butyl (R)-2-[4-(4-cyano-2-fluorophenoxy)phenoxy]propionate]
Crop plant transplanted rice ([1]; 125 g of active ingredient/ha, run-in method, 25 days after application): 0%
Crop plant transplanted rice [1, 5]: 0%
Weed Scirpus junc. ([3]; 125 g of active ingredient/ha): 0%
Weed Scirpus junc. ([3]; 250 g of active ingredient/ha): 0%
Weed Sagittaria pygm. ([2]; 125 g of active ingredient/ha): 0%
Weed Sagittaria pygm. ([2]; 250 g of active ingredient/ha): 0%
Weed Heterantera ([4]; 125 g of active ingredient/ha): 0%
Weed Heterantera ([4]; 250 g of active ingredient/ha): 0%

CN(C(=O)COc1nc2ccccc2s1)c1ccccc1 [2.1, 2-(1,3-benzothiazol-2-yloxy)-N-methylacetanilide]
Crop plant transplanted rice ([1]; in vivo): 0%
Weed Scirpus junc. ([3]; 125 g of active ingredient/ha): 0%
Weed Scirpus junc. ([3]; 250 g of active ingredient/ha): 65%
Weed Scirpus junc. ([3]; 500 g of active ingredient/ha): 94%
Weed Sagittaria pygm. ([2]; 500 g of active ingredient/ha): 0%
Weed Sagittaria pygm. ([2]; 1000 g of active ingredient/ha): 0%
Weed Heterantera ([4]; 500 g of active ingredient/ha): 40%
Weed Heterantera ([4]; 1000 g of active ingredient/ha): 50%

CCCOCCN(C(=O)CCl)c1c(CC)cccc1CC [2.3, 2-chloro-2′,6′-diethyl-N-(2-propoxyethyl)acetanilide]
Crop plant transplanted rice [1, 6]: 0%
Crop plant transplanted rice [1, 5]: 0%
Crop plant transplanted rice ([1]; 375 g of active ingredient/ha, run-in method, 25 days after application): 0%
Crop plant transplanted rice [1, 7]: 0%
Weed Sagittaria pygm. ([2]; 250 g of active ingredient/ha): 25%
Weed Sagittaria pygm. ([2]; 375 g of active ingredient/ha): 55%
Weed Sagittaria pygm. ([2]; 500 g of active ingredient/ha): 50%
Weed Heterantera ([4]; 60 g of active ingredient/ha): 0%
Weed Heterantera ([4]; 375 g of active ingredient/ha): 80%

COc1cc(OC)nc(Sc2cccc3c2C(=O)OC3C)n1 (stereo not shown) [I]
Crop plant transplanted rice [1, 6]: 0%
Crop plant transplanted rice ([1]; 120 g of active ingredient/ha, run-in method, 25 days after application): 0%
Crop plant transplanted rice ([1]; 240 g of active ingredient/ha, run-in method, 25 days after application): 0%
Weed Scirpus junc. ([3]; 60 g of active ingredient/ha): 0%
Weed Scirpus junc. ([3]; 120 g of active ingredient/ha): 50%
Weed Scirpus junc. ([3]; 240 g of active ingredient/ha): 92%
Weed Sagittaria pygm. ([2]; 60 g of active ingredient/ha): 0%
Weed Sagittaria pygm. ([2]; 120 g of active ingredient/ha): 0%
Weed Sagittaria pygm. ([2]; 240 g of active ingredient/ha): 0%
Weed Heterantera ([4]; 60 g of active ingredient/ha): 0%
Weed Heterantera ([4]; 120 g of active ingredient/ha): 0%
Weed Heterantera ([4]; 240 g of active ingredient/ha): 70%

Clc1cc(Cl)nc(-c2ccccc2)n1 [VI, 4,6-dichloro-2-phenylpyrimidine]
Crop plant transplanted rice ([1]; in vivo): 0%
Weed Sagittaria pygm. ([2]; 125 g of active ingredient/ha): 0%
Weed Heterantera ([4]; 125 g of active ingredient/ha): 0%

CCC(=O)Nc1ccc(Cl)c(Cl)c1 [2.2, 3′,4′-dichloropropionanilide]
Crop plant transplanted rice [1, 7]: 0%
Crop plant transplanted rice ([1]; 1000 g of active ingredient/ha, run-in method, 25 days after application): 0%
Weed Scirpus junc. ([3]; 500 g of active ingredient/ha): 0%
Weed Scirpus junc. ([3]; 1000 g of active ingredient/ha): 35%
Weed Sagittaria pygm. ([2]; 500 g of active ingredient/ha): 0%
Weed Sagittaria pygm. ([2]; 1000 g of active ingredient/ha): 0%
Weed Heterantera ([4]; 1000 g of active ingredient/ha): 0%
